Converted amounts (≈) assume the structure as drawn. Positions of bridges follow the written chain, without caps; N, C: chain ends. Non-standard residues stand in square brackets, D forms with d. Residues, ends and D or L forms follow the SMILES beside them. *: point of attachment. Benzoyl(3-CF3) = O=C(c1cccc(C(F)(F)F)c1)*; X12 = O=C(c1ccc(C(F)(F)F)c(F)c1)*; X9 = Cc1ccc(C(=O)*)cc1C(F)(F)F; X10 = O=C(c1cc(F)cc(Cl)c1)*; dNle = CCCC[C@@H](N)C(=O)O; X11 = Cc1ccc(C(=O)*)cc1Cl; Octanoyl = CCCCCCCC(=O)*; Dab = NCC[C@H](N)C(=O)O; Abu = CC[C@H](N)C(=O)O; Dap = NC[C@H](N)C(=O)O
How the values were obtained:
[1] = test system: K. pneumoniae FADDI-KP032; assay: In vivo efficacy in mouse blood infection model (neutropenic Swiss mice); details: compound, free base 4 mg/kg intravenously 2 h after inoculation, blood at 4 h
How it was run: (§1)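 Neutropenic Swiss mice (cyclophosphamide 150 mg/kg day −4, 100 mg/kg day −1, i.p.) infected i.v. with early log-phase bacteria; 4 mg/kg free base i.v. given 2 h post-inoculation. Blood CFU by cardiac puncture 4 h post-dose; Δlog10 CFU/mL treated versus saline controls.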

[2] = test system: Enterobacter cloacae
How it was run: (§2)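 Minimum inhibitory concentrations come from CLSI-standard broth microdilution in cation-adjusted Mueller-Hinton broth.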

[3] = test system: Acinetobacter baumannii
How it was run: as §2

[4] = test system: Klebsiella pneumoniae
How it was run: as §2

[5] = test system: Pseudomonas aeruginosa
How it was run: as §2

[6] = test system: P. aeruginosa ATCC 27853; assay: In vivo efficacy in mouse blood infection model (neutropenic Swiss mice); details: compound, free base 4 mg/kg intravenously 2 h after inoculation, blood at 4 h
How it was run: as §1

[7] = test system: A. baumannii ATCC 19606; assay: as above; details: compound, free base 4 mg/kg intravenously 2 h after inoculation, blood at 4 h
How it was run: as §1

| SMILES | Δ log (Treated-Control at 4 h) [1] [log10 CFU/mL] | Minimum inhibitory concentration, Ec FADDI-EC001 [2] [mg/L] | Minimum inhibitory concentration, Ec FADDI-EC003 [2] [mg/L] | Minimum inhibitory concentration, Ec FADDI-EC006 [2] [mg/L] | MIC [3] [mg/L] | Minimum inhibitory concentration, Ab A ATCC 17978 [3] [mg/L] | Minimum inhibitory concentration, Ab ATCC 19606 [3] [mg/L] | Minimum inhibitory concentration, Ab FADDI-AB034 [3] [mg/L] | MIC [4] [mg/L] | MIC [5] [mg/L] | Minimum inhibitory concentration, Pa ATCC 27853 [5] [mg/L] | Minimum inhibitory concentration, Pa FADDI-PA022 [5] [mg/L] | Minimum inhibitory concentration, Pa FADDI-PA025 [5] [mg/L] | Δ log (Treated-Control at 4 h) [6] [log10 CFU/mL] | Δ log (Treated-Control at 4 h) [7] [log10 CFU/mL] |
| --- | --- | --- | --- | --- | --- | --- | --- | --- | --- | --- | --- | --- | --- | --- | --- |
| CCCCCCCC(=O)N[C@@H](CCN)C(=O)N[C@H](C(=O)N[C@@H](CO)C(=O)N[C@H]1CCNC(=O)[C@H]([C@@H](C)O)NC(=O)[C@H](CCN)NC(=O)[C@H](CCN)NC(=O)[C@H]([C@@H](C)O)NC(=O)[C@@H](CC(C)C)NC(=O)[C@H](CCN)NC1=O)[C@@H](C)O [Compound 4] (Octanoyl-[Dab]TS[Dab][Dab][dL]T[Dab][Dab]T; lactam 4-C) | −1.84 | 0.5 (≈ 0.442 µM) | 0.25 (≈ 0.221 µM) | 1 (≈ 0.885 µM) | 8 (≈ 7.08 µM) | 8 (≈ 7.08 µM) | 8 (≈ 7.08 µM) | 4 (≈ 3.54 µM) | 1 (≈ 0.885 µM) | 4 (≈ 3.54 µM) | 4 (≈ 3.54 µM) | 8 (≈ 7.08 µM) | >32 |  |  |
| CC[C@@H]1NC(=O)[C@@H](CC(C)C)NC(=O)[C@H](CCN)NC(=O)[C@@H](NC(=O)[C@H](CN)NC(=O)[C@@H](NC(=O)[C@H](CCN)NC(=O)c2ccc(C)c(Cl)c2)[C@@H](C)O)CCNC(=O)[C@H]([C@@H](C)O)NC(=O)[C@H](CCN)NC(=O)[C@H](CCN)NC1=O [Compound 105] (X11-[Dab]T[Dap][Dab][Dab][dL][Abu][Dab][Dab]T; lactam 4-C) |  | 1 (≈ 0.877 µM) | 0.5 (≈ 0.439 µM) | 1 (≈ 0.877 µM) | 0.5 (≈ 0.439 µM) | 0.5 (≈ 0.439 µM) | 0.5 (≈ 0.439 µM) | 0.25 (≈ 0.219 µM) | 0.25 (≈ 0.219 µM) | 0.5 (≈ 0.439 µM) | 0.5 (≈ 0.439 µM) | 1 (≈ 0.877 µM) | 2 (≈ 1.75 µM) | −2.54 | −1.31 |
| CC[C@@H]1NC(=O)[C@@H](CC(C)C)NC(=O)[C@H](CCN)NC(=O)[C@@H](NC(=O)[C@H](CN)NC(=O)[C@@H](NC(=O)[C@H](CCN)NC(=O)c2cccc(C(F)(F)F)c2)[C@@H](C)O)CCNC(=O)[C@H]([C@@H](C)O)NC(=O)[C@H](CCN)NC(=O)[C@H](CCN)NC1=O [Compound 106] ({Benzoyl(3-CF3)}-[Dab]T[Dap][Dab][Dab][dL][Abu][Dab][Dab]T; lactam 4-C) | −2.77 | 0.25 (≈ 0.216 µM) | 0.5 (≈ 0.431 µM) | 0.25 (≈ 0.216 µM) | 0.5 (≈ 0.431 µM) | 0.5 (≈ 0.431 µM) | 0.5 (≈ 0.431 µM) | 0.25 (≈ 0.216 µM) | 0.25 (≈ 0.216 µM) | 0.5 (≈ 0.431 µM) | 0.5 (≈ 0.431 µM) | 0.5 (≈ 0.431 µM) | 2 (≈ 1.73 µM) | −2.33 |  |
| CC[C@@H]1NC(=O)[C@@H](CC(C)C)NC(=O)[C@H](CCN)NC(=O)[C@@H](NC(=O)[C@H](CN)NC(=O)[C@@H](NC(=O)[C@H](CCN)NC(=O)c2ccc(C(F)(F)F)c(F)c2)[C@@H](C)O)CCNC(=O)[C@H]([C@@H](C)O)NC(=O)[C@H](CCN)NC(=O)[C@H](CCN)NC1=O [Compound 111] (X12-[Dab]T[Dap][Dab][Dab][dL][Abu][Dab][Dab]T; lactam 4-C) |  | 0.5 (≈ 0.425 µM) | 0.25 (≈ 0.212 µM) | 0.25 (≈ 0.212 µM) | 0.5 (≈ 0.425 µM) | 0.5 (≈ 0.425 µM) | 0.5 (≈ 0.425 µM) | 0.25 (≈ 0.212 µM) | 0.25 (≈ 0.212 µM) | 1 (≈ 0.849 µM) | 0.5 (≈ 0.425 µM) | 1 (≈ 0.849 µM) | 1 (≈ 0.849 µM) | −3.65 | −1.66 |
| CC[C@@H]1NC(=O)[C@@H](CC(C)C)NC(=O)[C@H](CCN)NC(=O)[C@@H](NC(=O)[C@H](CN)NC(=O)[C@@H](NC(=O)[C@H](CCN)NC(=O)c2ccc(C)c(C(F)(F)F)c2)[C@@H](C)O)CCNC(=O)[C@H]([C@@H](C)O)NC(=O)[C@H](CCN)NC(=O)[C@H](CCN)NC1=O [Compound 113] (X9-[Dab]T[Dap][Dab][Dab][dL][Abu][Dab][Dab]T; lactam 4-C) |  | 1 (≈ 0.852 µM) | 0.25 (≈ 0.213 µM) | 1 (≈ 0.852 µM) | 0.5 (≈ 0.426 µM) | 0.25 (≈ 0.213 µM) | 0.5 (≈ 0.426 µM) | 0.25 (≈ 0.213 µM) | 0.25 (≈ 0.213 µM) | 0.5 (≈ 0.426 µM) | 1 (≈ 0.852 µM) | 0.5 (≈ 0.426 µM) | 2 (≈ 1.7 µM) | −2.61 | −1.60 |
| CC[C@@H]1NC(=O)[C@@H](CC(C)C)NC(=O)[C@H](CCN)NC(=O)[C@@H](NC(=O)[C@H](CN)NC(=O)[C@@H](NC(=O)[C@H](CCN)NC(=O)c2cc(F)cc(Cl)c2)[C@@H](C)O)CCNC(=O)[C@H]([C@@H](C)O)NC(=O)[C@H](CCN)NC(=O)[C@H](CCN)NC1=O [Compound 116] (X10-[Dab]T[Dap][Dab][Dab][dL][Abu][Dab][Dab]T; lactam 4-C) |  | 0.25 (≈ 0.219 µM) | 0.25 (≈ 0.219 µM) | 0.25 (≈ 0.219 µM) | 0.5 (≈ 0.437 µM) | 0.5 (≈ 0.437 µM) | 0.5 (≈ 0.437 µM) | 0.25 (≈ 0.219 µM) | 0.5 (≈ 0.437 µM) | 0.5 (≈ 0.437 µM) | 0.5 (≈ 0.437 µM) | 0.5 (≈ 0.437 µM) | 1 (≈ 0.874 µM) | −2.81 | −1.51 |
| CC[C@@H]1NC(=O)[C@@H](Cc2ccccc2)NC(=O)[C@H](CCN)NC(=O)[C@@H](NC(=O)[C@H](CN)NC(=O)[C@@H](NC(=O)[C@H](CCN)NC(=O)c2cccc(C(F)(F)F)c2)[C@@H](C)O)CCNC(=O)[C@H]([C@@H](C)O)NC(=O)[C@H](CCN)NC(=O)[C@H](CCN)NC1=O [Compound 122] ({Benzoyl(3-CF3)}-[Dab]T[Dap][Dab][Dab][dF][Abu][Dab][Dab]T; lactam 4-C) |  | 0.5 (≈ 0.419 µM) | 0.5 (≈ 0.419 µM) | 0.25 (≈ 0.21 µM) | 0.5 (≈ 0.419 µM) | 0.25 (≈ 0.21 µM) | 0.5 (≈ 0.419 µM) | 0.5 (≈ 0.419 µM) | 0.5 (≈ 0.419 µM) | 2 (≈ 1.68 µM) | 2 (≈ 1.68 µM) | 2 (≈ 1.68 µM) | 2 (≈ 1.68 µM) | −3.70 | −1.58 |
| CCCC[C@H]1NC(=O)[C@H](CCN)NC(=O)[C@@H](NC(=O)[C@H](CN)NC(=O)[C@@H](NC(=O)[C@H](CCN)NC(=O)c2cccc(C(F)(F)F)c2)[C@@H](C)O)CCNC(=O)[C@H]([C@@H](C)O)NC(=O)[C@H](CCN)NC(=O)[C@H](CCN)NC(=O)[C@H]([C@@H](C)O)NC1=O [Compound 123] ({Benzoyl(3-CF3)}-[Dab]T[Dap][Dab][Dab][dNle]T[Dab][Dab]T; lactam 4-C) |  | 0.5 (≈ 0.425 µM) | 0.5 (≈ 0.425 µM) | 1 (≈ 0.851 µM) | 1 (≈ 0.851 µM) | 1 (≈ 0.851 µM) | 1 (≈ 0.851 µM) | 0.5 (≈ 0.425 µM) | 0.5 (≈ 0.425 µM) | 0.5 (≈ 0.425 µM) | 0.5 (≈ 0.425 µM) | 0.5 (≈ 0.425 µM) | 2 (≈ 1.7 µM) | −2.96 | −1.53 |
| C[C@@H]1NC(=O)[C@@H](Cc2ccccc2)NC(=O)[C@H](CCN)NC(=O)[C@@H](NC(=O)[C@H](CN)NC(=O)[C@@H](NC(=O)[C@H](CCN)NC(=O)c2cccc(C(F)(F)F)c2)[C@@H](C)O)CCNC(=O)[C@H]([C@@H](C)O)NC(=O)[C@H](CCN)NC(=O)[C@H](CCN)NC1=O [Compound 126] ({Benzoyl(3-CF3)}-[Dab]T[Dap][Dab][Dab][dF]A[Dab][Dab]T; lactam 4-C) | −2.68 | 0.5 (≈ 0.424 µM) | 0.5 (≈ 0.424 µM) | 0.5 (≈ 0.424 µM) | 1 (≈ 0.848 µM) | 1 (≈ 0.848 µM) | 1 (≈ 0.848 µM) | 1 (≈ 0.848 µM) | 0.5 (≈ 0.424 µM) | 0.25 (≈ 0.212 µM) | 0.25 (≈ 0.212 µM) | 1 (≈ 0.848 µM) | 2 (≈ 1.7 µM) | −3.97 |  |
